Assay results as given in patent US20130195926A1, “MODULATION OF NITRIC OXIDE SIGNALING TO NORMALIZE TUMOR VASCULATURE” (The General Hospital Corporation, priority 2007, published 2013).

How the values were obtained:
[1] = tested on: HIF-1α; experiment: Western blot of HIF-1α expression in U87 tumors; type: in vivo; details: for HIF-1α protein levels, % of that in U87MG tumors: Western blot; for hypoxia inducible factor-1α (HIF-1α) protein levels: compared to U87MG tumors
Protocol: FIGS. 9A-E show the effect of nNOS silencing in U87 gliomas on tumor tissue oxygenation. Tissues shown in (A) were harvested and stained after injection of pimonidazole (60 mg/kg), followed by biotinylated lectin. Confocal laser scanning microscopy images (top row) of Hypoxyprobe™-1 adducts stained hypoxic cells (red), lectin-bound perfused blood vessels (green) and nuclei (blue) in U87MG, U87-shRNA58, and […] are 630 μm across. Binarized images (bottom row) of above confocal images. Bar indicates 100 μm. (B-C) Quantification of vessel segments (B) and vessel perimeter (C). (D) Quantification of hypoxic area. n=7, 3, 4 respectively. *p<0.05, as compared to U87MG tumors. (E) Western blot analysis of HIF-1α expression in U87MG and nNOS-snRNA-transfected U87 tumors. HIF-1α protein levels in U87-shRNA58 and U87-shRNA150 tumors were 46% and 59% of that in U87MG tumors, respectively. FIGS. 10A-C show the effect of nNOS silencing in U87 gliomas on fractionated radiation therapy. (A) Tumor growth normalized to day 0 tumor volume. (B) Tumor growth delay evaluated at the levels of 2, 4, and 6 times Vo. *P<0.05 as compared to U87MG. (C) Kaplan-Meier survival plot. U87 control (n=9), sh58 control (n=7), sh150 control (n=9), U87 radiation (n=8), sh58 radiation (n=6), sh150 radiation (n=10). FIGS. 11A-D show in vitro radiosensitivity and post-radiation tumor vasculature in U87 tumors. (A) Intrinsic tumor cell radiosensitivity was evaluated with the clonogenic assay. Following irradiation, the cells were incubated 9-13 d for colony formation depending on the dose administered. The surviving fractions were corrected for initial and final multiplicities determined 4-6 h after plating and at the time of irradiation. Data are expressed as mean±s.d. (B-D) When U87MG and nNOS-silenced U87 tumors grown in the hindleg in Rag-1^−/− mice reached ˜100 mm^3 they received 8 Gy/d for 3 d. […] (C-D) Quantification of the number of vessel segments (C) and vessel perimeter (D). […]
Equal amounts of 60 micrograms of protein per sample were separated on 7.5% SDS polyacrylamide gels, transferred onto polyvinylidene fluoride membrane (Millipore), incubated with primary antibodies followed by secondary antibodies (the same antibodies used in immunohistochemistry studies. See Immunohistochemistry methods below), and detected using enhanced chemiluminescence (GE Healthcare) by exposure on autoradiography films (Kodak) (Xu, L., et al. 2005 Cancer Res. 65, 5711-5719; Canneliet, P., et al. 1998 Nature 394, 485-490; Xu, L., et al. 2002 Journal of Biological Chemistry 277, 11368-11374 (2002); and Xu, L., et al. 2004 Clinical Cancer Research 10, 701-707).
The extent of hypoxia was determined in U87MG, U87-shRNA58, and U87-shRNA150 tumors utilizing a redox marker pimonidazole (Hypoxyprobe™-1 Kit, Millipore). […]

[2] = tested on: U87 tumors; experiment: Pimonidazole hypoxia staining and vessel density in U87 tumors grown in the hind leg; type: in vivo, mice; details: for positive staining for hypoxia (Hypoxyprobe-1 adducts): subcutaneous hind leg tumors ~100 mm3, Rag-1-/- mice; for vessel density: subcutaneous hind leg tumors, compared to U87MG tumors
Protocol: To evaluate tumor hypoxia, a hypoxia marker pimonidazole was used (Winkler, F., et al. 2004 Cancer Cell 6, 553-563). Briefly, when tumors grown in the hindleg reached about 100 mm^3, 60 mg/kg pimonidazole was injected i.v. into the mice bearing subcutaneous tumors (100 mm^3) 1 hr before perfusion fixation following biotinylated lectin injection. Blood vessels were stained with a Alexa 488-conjugated streptavidin (Vector Laboratory). Pimonidazole-adducts in hypoxic cells were detected using Hypoxyprobe-1 kit (Millipore) stained with tetramethylrhodamine isothiocyanate (TRITC)-conjugated goat antibody to mouse IgG. Cell nuclei were counter-stained by 4,6-diamidino-2-phenylindole (DAPI). Fluorescent images were taken using confocal laser-scanning microscopy, and vessel density and the pimonidazole-positive hypoxic area were determined using NIH image 1.63 macro (Winkler, F., et al. 2004 Cancer Cell 6, 553-563).
The macro identified TRITC-pimonidazole positive area and Alexa 488-positive perfused vessel area and binarized them at the same threshold. The percent of pimonidazole positive area to the total area was determined, and then the number and the perimeters of the binarized vascular areas were quantified on image J software. These parameters were determined in three-five photographic areas from each tumor (630×630 μm^2 each).
The extent of hypoxia was determined in U87MG, U87-shRNA58, and U87-shRNA150 tumors utilizing a redox marker pimonidazole (Hypoxyprobe™-1 Kit, Millipore). To determine the level of hypoxia during a commonly used experimental radiation treatment, tumors were grown to ˜100 mm^3 subcutaneously in the hind leg of Rag-1^−/− mice. […] In nNOS silenced U87-shRNA58 tumors (U87-shRNA58 and U87-shRNA150), most of tumor cells have blood vessels in close proximity, and positive staining for hypoxia was hardly seen (FIG. 9A). In agreement with previous intravital observations in the cranium, increased vessel density was found in U87-shRNA58 and U87-shRNA150 tumors, as compared to U87MG tumors (FIG. 9B-C). Improved vascular morphology and function induced by the selective vascular localization of NO alleviate tumor tissue hypoxia (FIG. 9D). A reduction in hypoxia inducible factor-1α (HIF-1α) protein levels was also observed in the U87-shRNA58 and U87-shRNA150 tumors, as compared to U87MG tumors (FIG. 9E).

**Q.** What does the source list for “shRNA150: short-hairpin RNA for nNOS, GGTCTATCCAATGTCCACA (sense), TGTGGACATTGGATAGACCTT (antisense), in pSilencer 3.1 H-1-hygro”?
**A.** HIF-1α protein levels, % of that in U87MG tumors [1]: 59%; hypoxia inducible factor-1α (HIF-1α) protein levels [1]: reduction; positive staining for hypoxia (Hypoxyprobe-1 adducts) [2]: hardly seen; vessel density [2]: increased

**Q.** What does the source list for “shRNA58: short-hairpin RNA for nNOS, CAAAGAGATCGACACCATC (sense), GATGGTGTCGATCTCTTTGTT (antisense), in pSilencer 3.1 H-1-hygro, stably transfected into U87MG”?
**A.** HIF-1α protein levels, % of that in U87MG tumors [1]: 46%; hypoxia inducible factor-1α (HIF-1α) protein levels [1]: reduction; positive staining for hypoxia (Hypoxyprobe-1 adducts) [2]: hardly seen; vessel density [2]: increased
